For one test, the target named is IKZF2 (Homo sapiens, UniProt Q96SW2+Q9UKS7). The following applies: cited from earlier work.
A further test addresses IKZF4 (Homo sapiens, UniProt Q96SW2+Q9H2S9). The following applies: cited from earlier work.
Test [1] deals with T1, CRBN-NanoLuc® fusion protein in 293T cells (Homo sapiens, UniProt Q96SW2).
T1 construct: expressed in transfected cells; host or cells: 293T (line named 293T.116)
Briefly: NanoBRET assay: competitive displacement of pomalidomide-NanoBRET tracer from CRBN-NanoLuc in 293T.116 cells. The class given is binding. The following applies: 2 h at 37° C., tracer at 300 nM. Here is the method: The cell permeability and binding affinity of test compounds to cellular cereblon (CRBN) was determined by competitive displacement of a pomalidomide-NanoBRET™ tracer reversibly bound to a CRBN-NanoLuc® fusion protein in 293T cells. 293T cells were modified by lentiviral transfection to express a fusion of CRBN and NanoLuc® luciferase. […] Affinity of test compound was determined by displacement of NanoBRET-pomalidomide tracer signal following the addition of NanoBRET reagents (Promega) per manufacturer's instructions.
40 μL 293T.116 cells suspended in OptiMEM media at 2×10^5 cells/mL (8000 cells/well) were dispensed using a Multidrop Combi Reagent Dispenser (Thermo Fisher) to each well of 384-well white TC-treated microplates. 10 mM DMSO test compound stock solution was serially diluted (half log) in DMSO to generate 11-point dose series (10000, 3160, 1000, 316, 100, 31.6, 10, 3.2, 1, 0.3, 0.1 μM) in an acoustic ready 384-well low dead volume microplate (Labcyte). […] 20 μL NanoBRET TE Assay reagents were added to each well and NanoBRET signal was acquired on an EnVision Multilabel Reader (PerkinElmer). Donor emission from CRBN-NanoLuc was detected at 450 nm with a NanoLuc 460/50 filter and Acceptor fluorescence of NanoBRET-pomalidomide tracer (618 nm) was detected with a 600 nm long pass NanoBRET filter. Ratio of Acceptor signal/Donor signal was calculated for each well. […]
Background: In BRET a luciferase serves as donor, and the signal depends on an acceptor being close.

For another test, the target named is SALL4 (Homo sapiens, UniProt Q96SW2+Q9UJQ4). Briefly: HiBiT degradation assay, KELLY.2 (SALL4-HiBiT) cells. It is filed as cell-based. Conditions: for DC50: KELLY.2 cells, 6 hours; for Emax: read-out: HiBiT-Degradation KELLY.2 SALL4 6 hours Emax, KELLY.2 cells. Here is the method: RPMI 1640 Medium without phenol red, fetal bovine serum (FBS), and Sodium Pyruvate (100 mM) were purchased from Gibco (Grand Island, NY, USA). Nano-Glo® HiBiT Lytic Assay System was purchased from Promega (Madison, WI, USA). […] Cell culture flasks and 384-well microplates were acquired from VWR (Radnor, PA, USA).
SALL4 degradation was determined based on quantification of luminescent signal using Nano-Glo® HiBiT Lytic Assay kit. Test compounds were added to the 384-well plate from a top concentration of 10 μM with 11 points, half log titration in duplicates. KELLY.2 cells were added into 384-well plates at a cell density of 6000 cells per well. The plates were kept at 37° C. with 5% CO2 for 6 hours. The cells treated in the absence of the test compound were the negative control and the cells without Nano-Glo® HiBiT Lytic reagent were the positive control. After 6-hour incubation, Nano-Glo® HiBiT Lytic Assay reagents were added to the cells. Luminescence was acquired on EnVision™ Multilabel Reader (PerkinElmer, Santa Clara, CA, USA).

The next test has as its target T2, CRBN (Homo sapiens, UniProt Q96SW2).
T2 construct: expressed in transfected cells; host or cells: 293T (line named 293T.116)
Briefly: NanoBRET CRBN binding, 293T.116 cells. The following applies: 2 hours.

The target of another test is GSPT1 (Homo sapiens, UniProt P15170+Q96SW2). Briefly: HiBiT degradation assay, 293T.114 cells, GSPT1. It is filed as cell-based. Here is the method:
GSPT1 degradation was determined based on quantification of luminescent signal using Nano-Glo® HiBiT Lytic Assay kit. Test compounds were added to the 384-well plate from a top concentration of 10 μM with 5 points, 3-fold titration in quadruplicates. 293T.114 cells were added into 384-well plates at a cell density of 6000 cells per well. […] The cells treated in the absence of the test compound were the negative control and the cells without Nano-Glo® HiBiT Lytic reagent were the positive control. […] Luminescence was acquired on EnVision™ Multilabel Reader (PerkinElmer, Santa Clara, CA, USA).
For orientation: The HiBiT peptide binds its large partner to form an active luciferase.

The target in a further test is T3, IKZF1 (Homo sapiens, UniProt Q13422+Q96SW2).
T3 construct: endogenously expressing IKZF1 with HiBiT fusion tag via CRISPR; endogenous in cells; host or cells: NCIH929.11 (CRISPR knock-in)
Briefly: HiBiT degradation assay, NCIH929.11 (HiBiT-IKZF1) cells. The class given is cell-based. Conditions: for DC50: NCHI929.11 cells, 6 hours; for Emax: read-out: HiBiT-Degradation NCHI929.11 IKZF1 6 hours Emax, NCHI929.11 cells. Here is the method:
RPMI no-phenol red medium and fetal bovine serum (FBS) were purchased from Gibco (Grand Island, NY, USA). Nano-Glo® HiBiT Lytic Assay System was purchased from Promega (Madison, WI, USA). NCIH929.11 (HiBiT-IKZF1) cell line was generated in house, endogenously expressing IKZF1 with HiBiT fusion tag via CRISPR. Cell culture flasks and 384-well microplates were acquired from VWR (Radnor, PA, USA).
IKZF 1 degradation was determined based on quantification of luminescent signal using Nano-Glo® HiBiT Lytic Assay kit. Test compounds were added to the 384-well plate from a top concentration of 10 μM with 11 points, half-log titration in duplicates. NCIH929.11 cells expressing HiBiT-tagged TKZF1 were added into 384-well plates in RPMI medium containing 10% FBS and 0.05 mM 2-mercaptoethanol at a cell density of 15000 cells per well. The plates were kept at 37° C. with […] for 6 hours. Cells treated in the absence of the test compound were the negative control and wells containing media only were the positive control. After 6-hour incubation, Nano-Glo® HiBiT Lytic Assay reagents were added to the designated wells. Luminescence was acquired on EnVision™ Multilabel Reader (PerkinElmer, Santa Clara, CA, USA).

[2] abbreviates: 293T.114 cells, 6 hours, read-out: HiBiT-Degradation 293T.114 GSPT1 6 hours DC50.
The mark [3] stands for this setting: read-out: HiBiT-Degradation 293T.114 GSPT1 6 hours Emax, 293T.114 cells, 6 hours.
The mark [4] stands for this setting: 293T.114 cells, 24 hours, read-out: HiBiT-Degradation 293T.114 GSPT1 24 hours DC50.
[5] abbreviates: 293T.114 cells, 24 hours, read-out: HiBiT-Degradation 293T.114 GSPT1 24 hours Emax.
The mark [6] stands for this setting: 293T.114 cells, 48 hours, read-out: HiBiT-Degradation 293T.114 GSPT1 48 hours DC50.
Setting [7] is: 293T.114 cells, 48 hours, read-out: HiBiT-Degradation 293T.114 GSPT1 48 hours Emax.
[8] abbreviates: read-out: GSPT1 Emax @ 10 μM 24 Hours, 24 hours.

Where two headings read alike, the source gives them in different places.

Results on eleven molecules are retold here after patent US20240018118A1, “TRICYCLIC COMPOUNDS TO DEGRADE NEOSUBSTRATES FOR MEDICAL THERAPY” (C 4 Therapeutics, Inc., priority 2020, published 2024).

On to `Nc1cccc2c1C(=O)N(C1CCC(=O)NC1=O)C2=O` (stereo not drawn) [pomalidomide], for which the “degradation of IKZF2” value at IKZF2 was “not degraded”. On IKZF4, the “degradation of IKZF4” value is “not degraded”.

On to `Cc1nc2cccc(N)c2c(=O)n1C1CCC(=O)NC1=O` (stereo not drawn) [CC-122], for which the “degradation of IKZF2” value on IKZF2 was “not degraded”. For the same molecule, the “degradation of IKZF4” value at IKZF4 was “not degraded”.

With `O=C1CCC(N2C(=O)c3ccc(Br)c4cccc2c34)C(=O)N1` (stereo not drawn) [Compound 224], the IC50 was 0.04 µM in test [1] and under 0.1 µM on CRBN. For the same molecule, the DC50 at SALL4 is under 0.1 µM; on GSPT1 (setting [2]), over 10 µM; on IKZF1 it was over 10 µM. Further, the maximum response (Emax) on SALL4 was under 45%; at GSPT1 (setting [3]), 60 to 95%; at IKZF1, 60 to 95%.

On to `CCOC(=O)c1cc(Cc2ccc3c4c(cccc24)N(C2CCC(=O)NC2=O)C3=O)ccc1F` (stereo not drawn) [Compound 69, ethyl 5-[[1-(2,6-dioxo-3-piperidyl)-2-oxo-benzo[cd]indol-5-yl]methyl]-2-fluoro-benzoate], for which the DC50 at SALL4, at GSPT1 (setting [2]) and at IKZF1 was over 10 µM in each case. Further, the maximum response (Emax) on SALL4, at GSPT1 (setting [3]) and at IKZF1 was 60 to 95% each time. Besides, the IC50 at CRBN is under 0.1 µM.

For the molecule `O=C1CCC(N2C(=O)c3ccc(CNCCc4ccc(Cl)cc4)c4cccc2c34)C(=O)N1` (stereo not drawn) [Compound 157], the 50% degradation concentration (DC50) at SALL4 was under 0.1 µM; at GSPT1 (setting [4]), over 10 µM; at GSPT1 (setting [6]), over 10 µM; at IKZF1, 0.1 to 1 µM. Further, the Emax was under 45% at SALL4, 60 to 95% at GSPT1 (setting [5]), 60 to 95% at GSPT1 (setting [7]) and under 45% at IKZF1. Also, the concentration for half-maximal inhibition (IC50) at CRBN is under 0.1 µM.

As to `O=C1CCC(N2C(=O)c3ccc(CNC(=O)C(F)(F)c4ccc(Cl)cc4)c4cccc2c34)C(=O)N1` (stereo not drawn) [Compound 64, 2-(4-chlorophenyl)-N-[[1-(2,6-dioxo-3-piperidyl)-2-oxo-benzo[cd]indol-5-yl]methyl]-2,2-difluoro-acetamide], the DC50 on SALL4 is under 0.1 µM; on GSPT1 (setting [2]), over 10 µM; on IKZF1, over 10 µM. Moreover, the maximum response (Emax) at SALL4 is under 45%; at GSPT1 (setting [8]), under 45%; on GSPT1 (setting [3]), 45 to 60%; at IKZF1 it was 45 to 60%. This molecule came in with a 50% inhibitory concentration (IC50) on CRBN of under 0.1 µM.

Turning to `N#Cc1ccc2c3c(cccc13)N(C1CCC(=O)NC1=O)C2=O` (stereo not drawn) [Compound 225], the concentration for half-maximal inhibition (IC50) in test [1] came out at 0.06 µM.

For `CCOc1ccc(Cc2ccc3c4c(cccc24)N(C2CCC(=O)NC2=O)C3=O)cc1` (stereo not drawn) [Compound 68, 3-[5-[(4-ethoxyphenyl)methyl]-2-oxo-benzo[cd]indol-1-yl]piperidine-2,6-dione], the DC50 at SALL4, on GSPT1 (setting [2]) and at IKZF1 was over 10 µM each time. Moreover, the maximal effect (Emax) at SALL4, on GSPT1 (setting [3]) and at IKZF1 was 60 to 95% each time. At CRBN, this molecule had a 50% inhibitory concentration (IC50) of under 0.1 µM.

`O=C1CC[C@H](N2Cc3c(OCc4ccc(CN5CCOCC5)cc4)cccc3C2=O)C(=O)N1` [CC-220]: the “degradation of IKZF2” value at IKZF2 is listed as “efficiently degraded”. For the same molecule, the “degradation of IKZF4” value at IKZF4 is on record as “efficiently degraded”.

For the molecule `CCOc1ccc(Cc2ccc3c4c(cccc24)N(C2CCC(=O)NC2=O)C3=O)c(F)c1` (stereo not drawn) [Compound 60, 3-(5-(4-ethoxy-2-fluorobenzyl)-2-oxobenzo[cd]indol-1(2H)-yl)piperidine-2,6-dione], the DC50 at SALL4, at GSPT1 (setting [2]) and on IKZF1 was over 10 µM throughout. Besides, the Emax on SALL4 is 60 to 95%; at GSPT1 (setting [8]), under 45%; at GSPT1 (setting [3]), 60 to 95%; at IKZF1, 60 to 95%. In addition, the IC50 at CRBN was under 0.1 µM.

With `O=C1CCC(N2C(=O)c3ccc(CNCc4cc(F)ccc4F)c4cccc2c34)C(=O)N1` (stereo not drawn) [Compound 155, 3-[5-[[(2,5-difluorophenyl)methylamino]methyl]-2-oxo-benzo[cd]indol-1-yl]piperidine-2,6-dione], the DC50 at SALL4 is under 0.1 µM; at GSPT1 (setting [4]) it was over 10 µM; on GSPT1 (setting [6]), over 10 µM; on IKZF1, over 10 µM. Moreover, the maximum response (Emax) is under 45% at SALL4, 60 to 95% at GSPT1 (setting [5]), 60 to 95% at GSPT1 (setting [7]) and 45 to 60% at IKZF1. At CRBN, the IC50 was under 0.1 µM.

For orientation: IC50 means the point on the concentration scale where inhibition reaches its midpoint. By DC50 is commonly meant the concentration giving 50% degradation. The term Emax denotes the greatest response seen or fitted, relative to the assay's reference.
